Assay results from patent US11117926B2, “Cholane derivatives for use in the treatment and/or prevention of FXR and TGR5/GPBAR1 mediated diseases” (BAR PHARMACEUTICALS S.R.L., priority 2014, dated 2021).
Structures can show the parent of a compound that is named as a salt.

Experiments:
human GPBAR1 = target: T1, human GPBAR1 (Homo sapiens, UniProt Q8TDU6); assay: GPBAR1 mediated transactivation (CRE luciferase reporter) in transfected HEK-293T cells; format: cell-based; conditions: each compound at 10 microM, transactivation activity of TLCA on CRE = 100%
T1 construct: expressed in transfected cells; host or cells: HEK-293T
T1 sequence (Q8TDU6 1-330): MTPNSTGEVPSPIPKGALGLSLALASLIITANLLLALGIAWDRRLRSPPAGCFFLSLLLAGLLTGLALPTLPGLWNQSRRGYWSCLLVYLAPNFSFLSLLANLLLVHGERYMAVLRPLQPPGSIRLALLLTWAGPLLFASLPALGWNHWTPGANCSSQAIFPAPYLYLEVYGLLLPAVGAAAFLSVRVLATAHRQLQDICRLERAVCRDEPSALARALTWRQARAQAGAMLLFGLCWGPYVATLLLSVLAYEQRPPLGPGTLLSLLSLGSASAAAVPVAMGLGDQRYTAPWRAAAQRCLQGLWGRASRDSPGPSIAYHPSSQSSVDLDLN
Experimental: (§1) Each compound was tested at the concentration of 10 microM and transactivation activity of CDCA on FXR and TLCA on CRE (i.e. TGR5/GPBAR1) was considered equal to 100%.
(§2) Biological Activities. Activity of selected compounds was tested in vitro using a whole cell model transfected with a reporter genes to establish selectivity of compounds shown in table 1 toward FXR and TGR5/GPBAR1 in comparison with chenodeoxycholic acid (CDCA) and TLCA. CDCA is a primary bile acid that functions as an endogenous ligand for FXR, while TLCA is a physiological ligand for TGR5/GPBAR1. In this assay, HepG2 cells (a liver-derived cell line) were cultured at 37° C. in minimum essential medium with Earl's salts containing 10% fetal bovine serum (FBS), 1% L-glutamine, and 1% penicillin/streptomycin. […] The transfection experiments were performed using Fugene HD according to manufactured specifications. Cells were plated in a 24-well plate at 5×10^4 cells/well. For FXR mediated transactivation, HepG2 cells were transfected with 100 ng of pSG5-FXR, 100 ng of pSG5-RXR, 100 ng of pGL4.70 a vector encoding the human Renilla gene and 250 ng of the reporter vector p(hsp27)-TK-LUC containing the FXR response element IR1 cloned from the promoter of heat shock protein 27 (hsp27).
(§3) At 24 h post-transfection, cells were stimulated for 18 h with 10 μM TLCA as a control agent or putative GPBAR1 agonists as the same concentration. After treatments, cells were lysed in 100 μL of lysis buffer (25 mM Tris-phosphate, pH 7.8; 2 mM DTT; 10% glycerol; 1% Triton X-100), and 20 μL of cellular lysate was assayed for luciferase activity using the luciferase assay system. Luminescence was measured using Glomax 20/20 luminometer. Luciferase activities were normalized against Renilla activities. Antagonism against FXR of GPBAR1/TGR5 was measured as percent of activity in transactivation assay suing activity of TLCA as example of agonism.

FXR = target: T2, FXR (Homo sapiens, UniProt Q96RI1); assay: FXR mediated transactivation (luciferase reporter) in transfected HepG2 cells; format: cell-based; conditions: each compound at 10 microM, transactivation activity of CDCA on FXR = 100%
T2 construct: expressed in transfected cells; host or cells: HepG2
T2 sequence (Q96RI1 1-486): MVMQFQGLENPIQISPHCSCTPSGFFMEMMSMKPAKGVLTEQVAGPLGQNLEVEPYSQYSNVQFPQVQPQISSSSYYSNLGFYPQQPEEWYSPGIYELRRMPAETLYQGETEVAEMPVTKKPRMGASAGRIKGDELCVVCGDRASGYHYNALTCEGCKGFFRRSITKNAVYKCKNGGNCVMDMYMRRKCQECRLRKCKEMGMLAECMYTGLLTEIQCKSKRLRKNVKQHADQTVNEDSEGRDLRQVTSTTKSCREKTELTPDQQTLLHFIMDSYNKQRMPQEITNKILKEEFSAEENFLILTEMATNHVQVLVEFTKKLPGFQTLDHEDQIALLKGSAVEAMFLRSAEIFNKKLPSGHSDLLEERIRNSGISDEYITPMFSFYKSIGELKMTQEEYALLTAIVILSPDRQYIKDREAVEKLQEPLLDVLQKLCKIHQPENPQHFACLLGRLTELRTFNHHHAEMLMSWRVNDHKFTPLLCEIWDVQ
T2 sequence (P19793 1-462 partner): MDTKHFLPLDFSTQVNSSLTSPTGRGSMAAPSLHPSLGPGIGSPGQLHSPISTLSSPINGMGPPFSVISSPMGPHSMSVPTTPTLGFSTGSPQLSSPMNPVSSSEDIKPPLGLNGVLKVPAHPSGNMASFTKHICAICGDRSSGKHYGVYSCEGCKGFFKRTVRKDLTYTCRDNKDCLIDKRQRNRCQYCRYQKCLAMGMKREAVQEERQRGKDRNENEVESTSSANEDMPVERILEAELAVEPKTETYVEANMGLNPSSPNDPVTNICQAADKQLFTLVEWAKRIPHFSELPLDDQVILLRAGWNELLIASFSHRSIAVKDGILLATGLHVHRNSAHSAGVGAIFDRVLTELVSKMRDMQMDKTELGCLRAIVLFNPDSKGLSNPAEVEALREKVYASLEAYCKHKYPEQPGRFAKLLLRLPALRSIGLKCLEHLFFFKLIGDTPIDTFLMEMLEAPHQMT
Experimental: as §1, §2, §3

Structure (SMILES) | GPBAR1 (% of activity in comparison to 10 μM TLCA) (human GPBAR1) | FXR (% of activity in comparison to 10 μM CDCA) (FXR)
C[C@H](CCCOS(=O)(=O)O)[C@H]1CCC2C3C(CC[C@@]21C)[C@@]1(C)CCCC[C@H]1C[C@H]3O (stereo partly drawn) [BAR402, 7α-hydroxy-5β-cholan-24-yl-24-sodium sulfate] | 28.0 ± 1.8% | 336.4 ± 20.8%
CC[C@H]1[C@@H](O)C2C3CC[C@H]([C@H](C)CCCO)[C@@]3(C)CCC2[C@@]2(C)CC[C@@H](O)C[C@@H]12 (stereo partly shown) [BAR504] | 103.0 ± 12.1% | 488.5 ± 17.5%
CC[C@@H]1[C@@H](O)[C@@H]2[C@H](CC[C@]3(C)[C@@H]([C@H](C)CCCO)CC[C@@H]23)[C@@]2(C)CC[C@@H](O)C[C@@H]12 [BAR504-6b, 6β-ethyl-3α,7α-dihydroxy-5β-cholan-24-ol] | 75.3 ± 3.4% | 32.4 ± 14.1%
CC[C@H]1[C@@H](O)[C@@H]2[C@H](CC[C@]3(C)[C@@H]([C@H](C)CCCO)CC[C@@H]23)[C@@]2(C)CCCC[C@@H]12 [BAR701, 6α-ethyl-7α-hydroxy-5β-cholan-24-ol] | 50.2 ± 2.3% | 101.3 ± 10.1%
CC[C@@H]1[C@@H](O)[C@@H]2[C@H](CC[C@]3(C)[C@@H]([C@H](C)CCCO)CC[C@@H]23)[C@@]2(C)CCCC[C@@H]12 [BAR705, 6β-ethyl-7α-hydroxy-5β-cholan-24-ol] | 67.0 ± 9.9% | 43.7 ± 3.9%
CC[C@@H]1[C@@H](O)[C@@H]2[C@H](CC[C@]3(C)[C@@H]([C@H](C)CCCO)CC[C@@H]23)[C@@]2(C)CC[C@H](O)C[C@@H]12 [BAR709, 6β-ethyl-3β,7α-dihydroxy-5β-cholan-24-ol] | 54.2 ± 0.3% | 33.7 ± 2.0%
CC[C@H]1[C@@H](O)[C@@H]2[C@H](CC[C@]3(C)[C@@H]([C@H](C)CCC(=O)O)CC[C@@H]23)[C@@]2(C)CCCC[C@@H]12 [BAR704, 6α-ethyl-7α-hydroxy-5β-cholan-24-oic acid] | 27.9 ± 6.3% | 220.5 ± 37.5%
CC[C@H]1[C@@H](O)C2C3CC[C@H]([C@H](C)CC#N)[C@@]3(C)CCC2[C@@]2(C)CC[C@@H](O)C[C@@H]12 (stereo partly drawn) [BAR506, 6α-ethyl-3α,7α-dihydroxy-24-nor-5β-cholan-23-nitrile] | 80.9 ± 9.5% | 411.5 ± 36.5%
CC[C@H]1[C@@H](O)[C@@H]2[C@H](CC[C@]3(C)[C@@H]([C@H](C)CCCOS(=O)(=O)[O-])CC[C@@H]23)[C@@]2(C)CCCC[C@@H]12.[Na+] [BAR701solf, 6α-ethyl-7α-hydroxy-5β-cholan-24-yl 24-sodium sulfate] | 63.5 ± 0.5% | 229 ± 2.0%
C[C@H](CCCCC(=O)O)[C@H]1CCC2C3C(CC[C@@]21C)[C@@]1(C)CC[C@@H](O)C[C@H]1C[C@@H]3O (stereo partly drawn) [BAR305, 3α, 7β-dihydroxy-25, 26-bishomo-5β-cholan-26-oic acid] | 23.9 ± 4.0% | 0%
CC[C@H]1[C@H](O)[C@@H]2[C@H](CC[C@]3(C)[C@@H]([C@H](C)CCCO)CC[C@@H]23)[C@@]2(C)CC[C@H](O)C[C@@H]12 [BAR707, 6α-ethyl-3β,7β-dihydroxy-5β-cholan-24-ol] | 65 ± 6.0% | 92.5 ± 7.5%
CC[C@H]1[C@@H](O)[C@@H]2[C@H](CC[C@]3(C)[C@@H]([C@H](C)CCCO)CC[C@@H]23)[C@@]2(C)CC[C@H](O)C[C@@H]12 [BAR706, 6α-ethyl-3β,7α-dihydroxy-5β-cholan-24-ol] | 66.05 ± 7.6% | 153 ± 9.0%
C[C@H](CCCCCO)[C@H]1CCC2C3C(CC[C@@]21C)[C@@]1(C)CC[C@@H](O)C[C@H]1C[C@@H]3O (stereo partly drawn) [BAR304, 25, 26-bishomo-5β-cholan-3α, 7β, 26-triol] | 55.1 ± 12.5% | 0%
CC[C@H]1[C@@H](O)C2C3CC[C@H]([C@H](C)CCCCC(=O)O)[C@@]3(C)CCC2[C@@]2(C)CC[C@@H](O)C[C@@H]12 (stereo partly drawn) [BAR802, 6α-ethyl-3α, 7α-dihydroxy-25, 26-bishomo-5β-cholan-26-oic acid] | 56 ± 5.0% | 11.5 ± 8.5%
CC[C@@H]1[C@H](O)C2C3CC[C@H]([C@H](C)CCO)[C@@]3(C)CCC2[C@@]2(C)CC[C@@H](O)C[C@@H]12 (stereo partly drawn) [BARn501, 6β-ethyl-3α, 7β-dihydroxy-24-nor-5β-cholan-23-ol] | 83.1 ± 7.4% | 8.5 ± 1.4%
CC[C@@H]1[C@H](O)[C@@H]2[C@H](CC[C@]3(C)[C@@H]([C@H](C)CCCO)CC[C@@H]23)[C@@]2(C)CCCC[C@@H]12 [BAR702, 6β-ethyl-7β-hydroxy-5β-cholan-24-ol] | 35.8 ± 1.2% | 11.7 ± 0.8%
CC[C@H]1[C@@H](O)C2C3CC[C@H]([C@H](C)CC(=O)O)[C@@]3(C)CCC2[C@@]2(C)CCCC[C@@H]12 (stereo partly drawn) [BARn704, 6α-ethyl-7α-hydroxy-24-nor-5β-cholan-23-oic acid] | 64 ± 2.0% | 202.5 ± 1.5%
CC[C@@H]1[C@H](O)[C@@H]2[C@H](CC[C@]3(C)[C@@H]([C@H](C)CCCO)CC[C@@H]23)[C@@]2(C)CC[C@@H](O)C[C@@H]12 [BAR501, 6β-ethyl-3α,7β-dihydroxy-5β-cholan-24-ol] | 64.5 ± 0.5% | 9.9 ± 0.1%
CC[C@H]1[C@@H](O)C2C3CC[C@H]([C@H](C)CCOS(=O)(=O)O)[C@@]3(C)CCC2[C@@]2(C)CC[C@H](O)C[C@@H]12 (stereo partly drawn) [BARn706solf, 6α-ethyl-3β,7α-dihydroxy-24-nor-5β-cholan-23-yl 23-sodium sulfate] | 71.5 ± 0.5% | 
